From the supplement of paper PMC8671470

Assays:
Settings in all cases: 72 h
[1] = tested on: BV-173
Method in brief: (§1)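 Fifteen myeloid leukaemia cell lines were seeded in RPMI 1640 at densities titrated to the linear growth range and placed in 384-well plates with acoustically pre-printed compounds at five tenfold doses from 1 to 10,000 nM, in duplicate. After 72 h at 37 °C with 5% CO2, luminescent ATP viability was normalised to vehicle and to a positive control at 10 µM, and curves were fitted with a four-parameter log-logistic model. The IC50 was obtained from these fits.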

[2] = tested on: HEL
Method in brief: as §1

[3] = tested on: HL-60
Method in brief: as §1

[4] = tested on: K-562
Method in brief: as §1

[5] = tested on: KCL-22
Method in brief: as §1

[6] = tested on: KG-1
Method in brief: as §1

[7] = tested on: KU-812
Method in brief: as §1

[8] = tested on: LAMA-84
Method in brief: as §1

[9] = tested on: ML-2
Method in brief: as §1

[10] = tested on: MOLM-13
Method in brief: as §1

[11] = tested on: MV4-11
Method in brief: as §1

[12] = tested on: Mono-Mac-6
Method in brief: as §1

[13] = tested on: NOMO-1
Method in brief: as §1

[14] = tested on: SHI-1
Method in brief: as §1

[15] = tested on: THP-1
Method in brief: as §1

[16] = tested on: HL-60; assay: cell viability (% survival relative to DMSO control); higher = less cytotoxic
Method in brief: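 In 384-well plates, the full library was rescreened in duplicate on HL-60 cells in RPMI 1640 with 10% FBS, at 1–10,000 nM in five tenfold concentrations, for 72 h at 37 °C, 5% CO2. Each run also held DMSO or 100 nM of one of three metabolic inhibitors. Viability was measured by CellTiter-Glo and normalised to DMSO wells and to wells with proteasome inhibitor, present at 10 μM. Any area under the curve comes from four-parameter log-logistic fitting with drc and PharmacoGx.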

[17] = tested on: BV-173; assay: cell viability (% survival relative to DMSO control, bortezomib = 0%); higher = less cytotoxic
Method in brief: (§2)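 Fifteen myeloid leukaemia cell lines (10 AML, 5 CML) were seeded at a density titrated to the linear growth range into 384-well plates pre-printed with compounds at 1, 10, 100, 1000 or 10000 nM in duplicate. Plates were incubated for 72 h at 37 °C with 5% CO2. Viability was then read by CellTiter-Glo luminescence. Each value is percent survival averaged over the duplicates, with vehicle set to 100% and a 10 µM positive control to 0%.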

[18] = tested on: HEL; assay: as above
Method in brief: as §2

[19] = tested on: HL-60; assay: as above
Method in brief: as §2

[20] = tested on: K-562; assay: as above
Method in brief: as §2

[21] = tested on: KU-812; assay: as above
Method in brief: as §2

[22] = tested on: LAMA-84; assay: as above
Method in brief: as §2

[23] = tested on: ML-2; assay: as above
Method in brief: as §2

[24] = tested on: MV4-11; assay: as above
Method in brief: as §2

[25] = tested on: Mono-Mac-6; assay: as above
Method in brief: as §2

[26] = tested on: NOMO-1; assay: as above
Method in brief: as §2

[27] = tested on: SHI-1; assay: as above
Method in brief: as §2

[28] = tested on: THP-1; assay: as above
Method in brief: as §2

O=C1c2cc([N+](=O)[O-])ccc2-n2c1nc1ccccc1c2=O [GNF-Pf-3777]
Settings | IC50 (cell viability)
[1] | 1.64 µM
[2] | 0.934 µM
[3] | 1.28 µM
[4] | 1.11 µM
[5] | 0.538 µM
[6] | 1.29 µM
[7] | 1.31 µM
[8] | 1.83 µM
[9] | 6.05 µM
[10] | 1580 nM
[11] | 1500 nM
[12] | 1.78 µM
[13] | 5.99 µM
[14] | 1.93 µM
[15] | 1.22 µM

cell viability [%], [16]
Settings | 0.001 µM | 0.01 µM | 0.1 µM | 1 µM | 10 µM
co-treatment: AZD3965 100 nM | 103 | 100 | 105 | 89 | 2.3
co-treatment: DMSO vehicle | 94.3 | 102 | 103 | 91.6 | 12.6
co-treatment: GSK2194069 100 nM | 103 | 98.4 | 88.8 | 80.8 | 8.8
co-treatment: pictilisib 100 nM | 95.5 | 101.2 | 92.2 | 78.63 | 6.29

cell viability [%]
Settings | 1 nM | 10 nM | 100 nM | 1000 nM | 10000 nM
[17] | 95.9 | 104 | 89.5 | 66.4 | 4.9
[18] | 98.5 | 105 | 105 | 53.1 | 13.6
[19] | 89.7 | 92.2 | 105 | 59.1 | 0.853
[20] | 102 | 100 | 103 | 56.2 | 4.1
[21] | 91.6 | 91.1 | 87.9 | 53.4 | 6.51
[22] | 97.5 | 102 | 96.1 | 71.3 | 32.8
[23] | 96.7 | 99 | 97.8 | 94.1 | 28.8
[24] | 106 | 101 | 97.1 | 67.5 | 2.64
[25] | 86.3 | 104 | 90.9 | 66.3 | 6.53
[26] | 92.3 | 99.9 | 90.3 | 86.7 | 31.8
[27] | 99.9 | 104 | 92 | 66.6 | 16.5
[28] | 103 | 92.2 | 85.6 | 62.3 | 30.9

Cl.NC(CCC(=O)Nc1ccc([N+](=O)[O-])cc1)C(=O)O (stereo not given) [GPNA]
Settings | IC50 (cell viability)
[1] | > 10 µM
[2] | > 10 µM
[3] | > 10 µM
[4] | > 10 µM
[5] | > 10 µM
[6] | > 10 µM
[7] | > 10 µM
[8] | > 10 µM
[9] | > 10 µM
[10] | > 10000 nM
[11] | > 10000 nM
[12] | > 10 µM
[13] | > 10 µM
[14] | > 10 µM
[15] | > 10 µM

cell viability [%], [16]
Settings | 0.001 µM | 0.01 µM | 0.1 µM | 1 µM | 10 µM
co-treatment: AZD3965 100 nM | 96.99 | 97.1 | 103.3 | 102 | 94.3
co-treatment: DMSO vehicle | 98.13 | 100 | 98.7 | 102 | 98.5
co-treatment: GSK2194069 100 nM | 99.6 | 104 | 99.4 | 85.4 | 96.8
co-treatment: pictilisib 100 nM | 100.2 | 97.4 | 98.5 | 98.7 | 92.5

cell viability [%]
Settings | 1 nM | 10 nM | 100 nM | 1000 nM | 10000 nM
[17] | 114 | 106 | 94.1 | 101 | 119
[18] | 95.2 | 104 | 106 | 91.5 | 104
[19] | 103 | 60.6 | 104 | 99.3 | 125
[20] | 108 | 96.3 | 100 | 109 | 120
[21] | 108 | 95.5 | 103 | 96.4 | 110
[22] | 109 | 109 | 98 | 111 | 100
[23] | 107 | 90.5 | 98.9 | 107 | 109
[24] | 117 | 93.5 | 100 | 99.5 | 124
[25] | 92.2 | 96.4 | 105 | 98.3 | 104
[26] | 107 | 102 | 101 | 105 | 105
[27] | 107 | 91.6 | 94.9 | 99.5 | 98.3
[28] | 106 | 101 | 101 | 102 | 104

CC(C)c1onc(-c2c(Cl)cccc2Cl)c1COc1ccc(/C=C/c2cccc(C(=O)O)c2)c(Cl)c1 [GW4064]
Settings | IC50 (cell viability)
[1] | 6.11 µM
[2] | > 10 µM
[3] | > 10 µM
[4] | 6.26 µM
[5] | 3.6 µM
[6] | 8.29 µM
[7] | > 10 µM
[8] | 4.27 µM
[9] | > 10 µM
[10] | 2340 nM
[11] | 1600 nM
[12] | > 10 µM
[13] | > 10 µM
[14] | > 10 µM
[15] | > 10 µM

cell viability [%], [16]
Settings | 0.001 µM | 0.01 µM | 0.1 µM | 1 µM | 10 µM
co-treatment: AZD3965 100 nM | 102 | 98.93 | 91 | 109 | 93.1
co-treatment: DMSO vehicle | 99.99 | 99.3 | 101 | 99.9 | 99.6
co-treatment: GSK2194069 100 nM | 99.3 | 98.9 | 97.7 | 90.85 | 75.5
co-treatment: pictilisib 100 nM | 86.7 | 96.6 | 90.9 | 105 | 97.1

cell viability [%]
Settings | 1 nM | 10 nM | 100 nM | 1000 nM | 10000 nM
[17] | 111 | 96.2 | 92.3 | 87.7 | 37.4
[18] | 85.7 | 87.2 | 86.8 | 87 | 66.7
[19] | 115 | 93.8 | 89.7 | 109 | 51.5
[20] | 109 | 107 | 105 | 90.9 | 49.4
[21] | 96.8 | 99.7 | 90.7 | 85.1 | 76
[22] | 105 | 103 | 94.2 | 85.3 | 43.4
[23] | 95.6 | 86.2 | 84 | 86.2 | 68.5
[24] | 110 | 107 | 78.6 | 68.2 | 6.8
[25] | 104 | 87.6 | 95.9 | 86.7 | 67.7
[26] | 102 | 99.3 | 94 | 95.8 | 89.5
[27] | 110 | 99.3 | 101 | 95.9 | 53
[28] | 88.8 | 92.3 | 91.5 | 90.5 | 54.6
